Reference: US20240254129A1, “HETEROCYCLIC COMPOUNDS AND USES THEREOF” (Kumquat Biosciences Inc., priority 2021, published 2024)
Read-outs that look alike come from different tables or passages of the source.

Key:
[1] = target: GST-tagged K-Ras mutant / His-tagged hSOS1 (Homo sapiens, UniProt P01116); assay: HTRF assay, K-Ras mutant / SOS1 interaction; assay type: binding; conditions: read-out: IC50 against mutant Kras
Excerpt: (§1) This assay can be also used to assess a selective inhibition of a mutant Ras protein relative to a wildtype, or relative to a different mutant Ras protein. For example, the equilibrium interaction of wildtype Kras or K-Ras mutant (e.g., wildtype or a mutant thereof including those mentioned in Example 6) with SOS1 (e.g., hSOS1) can be assessed as a proxy or an indication for a subject compound's ability to bind and inhibit Ras protein. HTRF assay detects from (i) a fluorescence resonance energy transfer (FRET) donor (e.g., antiGST-Europium) that is bound to GST-tagged K-Ras mutant to (ii) a FRET acceptor (e.g., anti-6His-XL665) bound to a His-tagged hSOS1.
(§2) The assay buffer can contain ˜5 mM HEPES pH 7.4, ˜150 mM NaCl, ˜ 1 mM DTT, 0.05% BSA and 0.0025% (v/v) Igepal. A Ras working solution is prepared in an assay buffer containing typically a suitable amount of the protein construct (e.g., GST-tagged K-Ras mutant) and the FRET donor (e.g., antiGST-Eu(K) from Cisbio, France). A SOS1 working solution is prepared in an assay buffer containing suitable amount of the protein construct (e.g., His-hSOS1) and the FRET acceptor (e.g., anti-6His-XL665 from Cisbio, France). A suitable amount of the protein construct will depend on the range of activity or range of IC50 values being detected or under investigation. For detecting IC50 within a range of 500 nM, the protein constructs of the same range of molarity can be utilized.
(§3) A fixed volume of DMSO with or without test compound is transferred into a 384-well plate. Ras working solution is added to all wells of the test plate. SOS1 working solution is added to all wells except for those that are subsequently filled the inhibitor control solution. Upon incubation for about 10 minutes or longer, the fluorescence is measured with a M1000Pro plate reader (Tecan) using HTRF detection (excitation 337 nm, emission 1: 620 nm, emission 2: 665 nm). Compounds are tested in duplicates at different concentrations (for example, 10 μM, 2.5 μM, 0.63 μM, 0.16 μM, 0.04 µM, 0.01 μM test compound). The ratiometric data (i.e., emission 2 divided by emission 1) is used to calculate IC50 values against Ras using GraphPad Prism (GraphPad software). Following this general procedure, samples were tested with or without a subject compound disclosed herein including compounds exemplified in Table 1 to assess their abilities to inhibit K-Ras signaling or their respective IC50 values against a given Ras protein (e.g., a given mutant K-Ras) of interest.

wildtype Kras / hSOS1 = target: T1, wildtype Kras / hSOS1 (Homo sapiens, UniProt P01116); assay: HTRF assay, wildtype Kras / SOS1 interaction; assay type: binding; conditions: read-out: IC50 against wildtype Kras
T1 construct: made in house; host or cells: E. coli BL21 (DE3)
Excerpt: as §1, §2, §3

[2] = compound nos. 201-213, general methodology of example 5
[3] = compound nos. 102-196, general methodology of example 5

GST-tagged K-Ras mutant / His-tagged hSOS1, sequence (P01116 whole entry G12D, form open): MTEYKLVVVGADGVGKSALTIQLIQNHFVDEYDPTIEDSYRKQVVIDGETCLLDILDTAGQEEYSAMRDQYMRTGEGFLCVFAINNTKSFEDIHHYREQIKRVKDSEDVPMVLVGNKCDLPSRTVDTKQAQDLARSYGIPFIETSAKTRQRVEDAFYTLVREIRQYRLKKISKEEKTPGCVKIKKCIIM
T1 sequence (P01116 1-188 isoform P01116-2): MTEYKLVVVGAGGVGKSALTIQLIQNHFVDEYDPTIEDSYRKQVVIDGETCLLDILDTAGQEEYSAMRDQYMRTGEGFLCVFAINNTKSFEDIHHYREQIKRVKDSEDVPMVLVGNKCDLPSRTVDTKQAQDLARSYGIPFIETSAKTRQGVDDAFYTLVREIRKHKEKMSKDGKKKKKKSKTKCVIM

SMILES | IC50 ([1]; compound nos. 401-703) [µM] | IC50 (wildtype Kras / hSOS1; compound nos. 401-703) [µM] | IC50 [1, 3] [µM] | further results
CN1CCCC1CCNc1nc(N2CC3CCC(C2)N3)c2ccc(-c3ccc(F)c4sc(N)nc34)nc2n1 (stereo not shown) [Compound 697, 4-(4-(3,8-diazabicyclo-[3.2.1]octan-3-yl)-2-((2-(1-methylpyrrolidin-2-yl)-ethyl)amino)pyrido[2,3-d]-pyrimidin-7-yl)-7-fluoro-benzo[d]thiazol-2-amine] | > 0.5 | > 0.5 | – | –
CN1CCC[C@H]1COc1nc(N2CCC(O)C(F)CC2)c2cc(Cl)c(-c3cccc4sc(N)nc34)c(F)c2n1 (stereo partly drawn) [Compound 675, 1-(7-(2-aminobenzo[d]-thiazol-4-yl)-6-chloro-8-fluoro-2-(((S)-1-methyl-pyrrolidin-2-yl)methoxy)-quinazolin-4-yl)-5-fluoro-azepan-4-ol] | – | > 0.5 | – | –
Nc1nc2c(-c3c(Cl)cc4c(N5CC6CCC(C5)N6)nc(OC[C@@]56CCCN5C[C@H](F)C6)nc4c3F)cccc2o1 [Compound 204, 4-(4-((1R,5S)-3,8-diaza-bicyclo[3.2.1]octan-3-yl)-6-chloro-8-fluoro-2-(((2R,7aS)-2-fluorotetra-hydro-1H-pyrrolizin-7a(5H)-yl)methoxy)quin-azolin-7-yl)benzo[d]-oxazol-2-amine] | – | – | – | IC50 [1, 2]: < 1.5 µM; IC50 (wildtype Kras / hSOS1; [2]): < 1.5 µM
Nc1cc(-c2c(Cl)cc3c(N4CC5CCC(C4)N5)nc(OCC45CCCN4CCC5)nc3c2F)ccc1F [Compound 627, 5-(4-(3,8-diazabicyclo-[3.2.1]octan-3-yl)-6-chloro-8-fluoro-2-((tetrahydro-1H-pyrrolizin-7a(5H)-yl)meth-oxy)quinazolin-7-yl)-2-fluoroaniline] | > 0.5 | > 0.5 | – | –
CN1CCC[C@H]1COc1nc(N2CCCCC(O)C2)c2cc(Cl)c(-c3cccc4sc(N)nc34)c(F)c2n1 (stereo partly drawn) [Compound 506, 1-(7-(2-aminobenzo[d]thia-zol-4-yl)-6-chloro-8-fluoro-2-(((S)-1-methylpyrrolidin-2-yl)methoxy)quinazolin-4-yl)azepan-3-ol] | < 0.5 | > 0.5 | – | –
Cc1c(N)sc2cccc(-c3ccc4c(N5CC6CCC(C5)N6)nc(OC[C@@]56CCCN5C[C@H](F)C6)nc4c3F)c12 [Compound 437, 4-(4-(3,8-diazabicyclo-[3.2.1]octan-3-yl)-8-fluoro-2-(((2R,7aS)-2-fluorotetra-hydro-1H-pyrrolizin-7a(5H)-yl)methoxy)quinazolin-7-yl)-3-methylbenzo[b]thio-phen-2-amine] | > 0.5 | < 0.5 | – | –
Nc1nc2c(-c3c(Cl)cc4c(N5CC6CCCC5CN6)nc(OC[C@@]56CCCN5C[C@H](F)C6)nc4c3F)ccc(F)c2s1 (stereo partly drawn) [Compound 685, 4-(4-(6,8-diazabicyclo-[3.2.2]nonan-6-yl)-6-chloro-8-fluoro-2-(((2R,7aS)-2-fluorotetrahydro-1H-pyrrol-izin-7a(5H)-yl)methoxy)-quinazolin-7-yl)-7-fluoro-benzo[d]thiazol-2-amine] | < 0.5 | > 0.5 | – | –
Oc1cc(CN2CCc3nc(OCC45CCCN4CCC5)nc(N4CC5CCC(C4)N5)c3CC2)c2ccccc2c1 [Compound 658, 4-((4-(3,8-diazabicyclo-[3.2.1]-octan-3-yl)-2-((tetrahydro-1H-pyrrolizin-7a(5H)-yl)methoxy)-5,6,8,9-tetrahydro-7H-pyrimido-[4,5-d]azepin-7-yl)methyl)-naphthalen-2-ol] | > 0.5 | > 0.5 | – | –
CN1CCC[C@H]1COc1nc(N2CCNCC(F)(F)C2)c2cc(Cl)c(-c3cccc4scnc34)c(F)c2n1 [Compound 122, 4-(6-chloro-4-(6,6-difluoro-1,4-diazepan-1-yl)-8-fluoro-2-(((S)-1-methylpyrrolidin-2-yl)methoxy)quinazolin-7-yl)benzo[d]thiazole] | – | – | > 0.5 | IC50 (wildtype Kras / hSOS1; [3]): > 0.5 µM
Nc1nc2c(-c3c(Cl)cc4c(N5CC6CCC(C5)N6)nc(OCC56CCCC5CCC6)nc4c3F)cccc2s1 (stereo not shown) [Compound 571, 4-(4-(3,8-diazabicyclo-[3.2.1]octan-3-yl)-6-chloro-8-fluoro-2-((hexahydro-pentalen-3a(1H)-yl)meth-oxy)quinazolin-7-yl)benzo-[d]thiazol-2-amine] | > 0.5 | > 0.5 | – | –
Nc1nc2c(-c3c(Cl)cc4c(N5CCCCC(F)C5)nc(OC[C@@]56CCCN5C[C@H](F)C6)nc4c3F)ccc(F)c2s1 (stereo partly drawn) [Compound 190, 4-(6-chloro-8-fluoro-4-(3-fluoroazepan-1-yl)-2-(((2R,7aS)-2-fluorotetra-hydro-1H-pyrrolizin-7a(5H)-yl)methoxy)quin-azolin-7-yl)-7-fluorobenzo-[d]thiazol-2-amine] | – | – | < 0.5 | IC50 (wildtype Kras / hSOS1; [3]): < 0.5 µM
Nc1nc2c(-c3c(Cl)cc4c(N5CCNCC(F)(F)C5)ncnc4c3F)cccc2s1 [Compound 110, 4-(6-chloro-4-(6,6-difluoro-1,4-diazepan-1-yl)-8-fluoro-quinazolin-7-yl)benzo[d]-thiazol-2-amine] | – | – | > 0.5 | IC50 (wildtype Kras / hSOS1; [3]): > 0.5 µM
Nc1nc2c(-c3c(Cl)cc4c(N5CCNCC(F)(F)C5)nc(OCC56CCCN5C[C@H](F)C6)nc4c3F)cccc2s1 (stereo partly drawn) [Compound 120, 4-(6-chloro-4-(6,6-difluoro-1,4-diazepan-1-yl)-8-fluoro-2-(((2R)-2-fluorotetrahydro-1H-pyrrolizin-7a(5H)-yl)-methoxy)quinazolin-7-yl)-benzo[d]thiazol-2-amine] | – | – | < 0.5 | IC50 (wildtype Kras / hSOS1; [3]): < 0.5 µM
CN1CCC[C@H]1COc1nc(N2CCCC(F)C(F)(F)C2)c2cc(Cl)c(-c3cccc4sc(N)nc34)c(F)c2n1 (stereo partly drawn) [Compound 459, 4-(6-chloro-8-fluoro-2-(((S)-1-methylpyrrolidin-2-yl)-methoxy)-4-(3,3,4-trifluoro-azepan-1-yl)quinazolin-7-yl)benzo[d]thiazol-2-amine] | < 0.5 | < 0.5 | – | –
Nc1ccc(-c2ccc(O)cc2-c2c(Cl)cc3c(N4CC5CCC(C4)N5)nc(OCC45CCCN4CCC5)nc3c2F)cc1 [Compound 445, 2-(4-(3,8-diazabicyclo-[3.2.1]octan-3-yl)-6-chloro-8-fluoro-2-((tetrahydro-1H-pyrrolizin-7a(5H)-yl)meth-oxy)quinazolin-7-yl)-4′-amino-[1,1′-biphenyl]-4-ol] | > 0.5 | < 0.5 | – | –
Nc1nc2c(-c3c(Cl)cc4c(N5CCNCC(F)C5)nc(OC[C@@]56CCCN5C[C@H](F)C6)nc4c3F)ccc(F)c2s1 (stereo partly drawn) [Compound 164, 4-(6-chloro-8-fluoro-4-(6-fluoro-1,4-diazepan-1-yl)-2-(((2R,7aS)-2-fluorotetra-hydro-1H-pyrrolizin-7a(5H)-yl)methoxy)quinazolin-7-yl)-7-fluorobenzo[d]thiazol-2-amine] | – | – | < 0.5 | IC50 (wildtype Kras / hSOS1; [3]): < 0.5 µM
Nc1cc(-c2c(Cl)cc3c(N4CC5CCC(C4)N5)nc(OCC45CCCN4CCC5)nc3c2F)c2ccccc2n1 [Compound 636, 4-(4-(3,8-diazabicyclo-[3.2.1]octan-3-yl)-6-chloro-8-fluoro-2-((tetrahydro-1H-pyrrolizin-7a(5H)-yl)meth-oxy)quinazolin-7-yl)quin-olin-2-amine] | > 0.5 | > 0.5 | – | –
Fc1c(Br)ccc2c(N3CC4CCC(C3)N4)nc(OC[C@@]34CCCN3C[C@H](F)C4)nc12 [Compound 537, 4-(3,8-diazabicyclo[3.2.1]-octan-3-yl)-7-bromo-8-fluoro-2-(((2R,7aS)-2-fluorotetrahydro-1H-pyrrol-izin-7a(5H)-yl)methoxy)-quinazoline] | > 0.5 | > 0.5 | – | –
N#CCC1CNCCN(c2nc(OCC34CCCN3CCC4)nc3c(F)c(-c4ccc(F)c5sc(N)nc45)c(Cl)cc23)C1 (stereo not shown) [Compound 188, 2-(1-(7-(2-amino-7-fluoro-benzo[d]thiazol-4-yl)-6-chloro-8-fluoro-2-((tetra-hydro-1H-pyrrolizin-7a(5H)-yl)methoxy)quin-azolin-4-yl)-1,4-diazepan-6-yl)acetonitrile] | – | – | < 0.5 | –
CN1CCC[C@H]1COc1nc(N2CCCC(NC3CC3)CC2)c2cc(Cl)c(-c3cccc4sc(N)nc34)c(F)c2n1 (stereo partly drawn) [Compound 590, 4-(6-chloro-4-(4-(cycloprop-ylamino)azepan-1-yl)-8-fluoro-2-(((S)-1-methylpyr-rolidin-2-yl)methoxy)quin-azolin-7-yl)benzo[d]thiazol-2-amine] | > 0.5 | – | – | –
